Reference: patent US20130165475A1, “DEUTERIUM-ENRICHED HETEROCYCLIC COMPOUNDS AS KINASE INHIBITORS” (ASCEPION PHARMACEUTICALS, INC., priority 2010, published 2013)
Structures can show the parent of a compound that is named as a salt.

Experiments:
VEGFR2 = biological target: T1, VEGFR2 (Homo sapiens, UniProt P35968); assay: VEGFR2 cell-based assay (ELISA, phosphor-/total VEGFR2 in transfected CHO cells); conditions: compound at 100 nM; CHO cells transfected with full length VEGFR2; FBS stimulation; read-out: % VEGFR2 kinase activity remains
T1 construct: expressed in transfected cells; host or cells: CHO cells
T1 sequence (P35968 20-1356): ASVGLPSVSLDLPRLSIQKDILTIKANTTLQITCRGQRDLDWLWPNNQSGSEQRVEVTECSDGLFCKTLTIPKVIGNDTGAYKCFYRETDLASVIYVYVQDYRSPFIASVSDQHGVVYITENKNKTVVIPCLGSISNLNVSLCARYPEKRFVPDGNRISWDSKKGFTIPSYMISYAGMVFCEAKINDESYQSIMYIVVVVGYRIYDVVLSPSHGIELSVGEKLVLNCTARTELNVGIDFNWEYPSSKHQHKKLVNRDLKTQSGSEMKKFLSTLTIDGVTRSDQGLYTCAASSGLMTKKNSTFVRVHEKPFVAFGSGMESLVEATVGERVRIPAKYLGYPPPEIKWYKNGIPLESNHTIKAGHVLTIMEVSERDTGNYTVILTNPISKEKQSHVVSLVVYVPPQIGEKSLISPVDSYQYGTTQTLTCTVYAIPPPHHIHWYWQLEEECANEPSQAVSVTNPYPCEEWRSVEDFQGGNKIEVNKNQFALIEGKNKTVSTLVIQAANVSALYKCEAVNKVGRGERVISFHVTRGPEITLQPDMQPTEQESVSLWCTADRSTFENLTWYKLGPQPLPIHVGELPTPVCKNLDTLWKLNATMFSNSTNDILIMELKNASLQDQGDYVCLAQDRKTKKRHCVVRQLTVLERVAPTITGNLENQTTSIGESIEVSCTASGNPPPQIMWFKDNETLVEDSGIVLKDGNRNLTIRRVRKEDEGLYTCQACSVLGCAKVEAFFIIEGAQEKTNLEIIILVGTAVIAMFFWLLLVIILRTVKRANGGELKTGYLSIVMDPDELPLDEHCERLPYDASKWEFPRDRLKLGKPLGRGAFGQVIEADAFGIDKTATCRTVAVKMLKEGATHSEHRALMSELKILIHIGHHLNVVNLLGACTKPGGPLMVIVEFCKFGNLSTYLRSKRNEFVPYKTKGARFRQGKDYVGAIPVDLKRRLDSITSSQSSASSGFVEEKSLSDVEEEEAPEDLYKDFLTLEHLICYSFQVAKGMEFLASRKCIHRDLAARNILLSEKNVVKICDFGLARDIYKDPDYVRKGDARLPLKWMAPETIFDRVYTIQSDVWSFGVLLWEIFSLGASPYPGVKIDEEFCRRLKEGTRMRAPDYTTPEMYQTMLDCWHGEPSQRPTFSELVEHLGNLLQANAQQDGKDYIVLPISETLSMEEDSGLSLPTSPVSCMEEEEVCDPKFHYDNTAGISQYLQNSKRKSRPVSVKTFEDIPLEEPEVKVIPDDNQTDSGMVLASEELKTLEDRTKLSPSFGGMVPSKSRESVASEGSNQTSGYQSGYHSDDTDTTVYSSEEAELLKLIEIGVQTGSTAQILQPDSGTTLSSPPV
Excerpt: A standard cell-based assay for VEGFR2 kinase activity can be used to test or screen the compounds of this invention and to identify VEGFR2 antagonists. In this example, ELISA kits (R&D Systems, Inc., Minneapolis, Minn. 55413, USA) were used.
The activity of VEGFR2 in cells depended on its autophosphorylation level by various factors including growth factors. In order to induce the cell to produce VEGFR2, full length of VEGFR2 sequence was cloned into PC-DNA3.1 vector, the plasmid was then transfected into CHO cells. After 48 hours, the expression of VEGFR2 in transfected CHO cells was confirmed by regular western blotting.
A compound to be tested was first dissolved in DMSO to a concentration of 10 mM and stored at −20° C. One day before the test, CHO cells transfected with full length VEGFR2 plasmid were grown in Dulbecco's Modified Eagle Medium (DMEM) without the presence of serum. On the day of the test, the compounds with various concentrations in DMSO (from 0.5 nM to 500 nM) were added into DMEM. Two hours later, 20% of FBS (Fetal Bovine Serum) was added into the medium to stimulate the production of phosphor-VEGFR2. Cell lysate from approximately 5×10^5 transfected CHO cells were reacted with anti-phosphor VEGFR2 or anti-total VEGFR2 antibody in 96-well plates, in the presence of detection antibody. The phosphor-VEGFR2 or total VEGFR2 were detected with Streptavidin-HRP(R&D Systems), followed by chemiluminescent detection. The level of VEGFR2 kinase activity was quantified as the ratio between the amount of phosphor- and that of total VEGFR2 proteins.

Mouse liver microsome = assay: Liver microsomal stability assay, mouse; assay type: in vitro ADME; design: key: A: the percentage of a compound remains is greater than that of its deuterium non-enriched counterpart; B: a result otherwise; conditions: 40 μM, 37° C., 30 min, 1 mg/ml microsome proteins; class relative to deuterium non-enriched counterpart
Method: (§1) A standard liver microsomal stability assay can be used to test or screen the compounds of this invention and to identify compounds with enhanced metabolic stability due to the enrichment of deuterium in the compounds. Liver microsome proteins prepared from different species such as mouse and rat were obtained from a commercial source (Research Institute for Liver Diseases, Shanghai, China). The assay was conducted in 1.5% potassium hydrogenphosphate (K2HPO4) in the presence of liver microsome proteins at 1 mg/ml and supplemented with an […] (3.3 mM NADPH, 3.3 mM glucose-6-phosphate, 6 units/ml G6PDase, and 3.3 mM magnesium chloride). Test compound was added into the assay mixture to a final concentration of 40 μM and incubated at 37° C. for 0 or 30 minutes. The reaction was stopped by the addition of 20 μM Bifonazole/CAN. Samples were then centrifuged at 14000 rpm for 10 minutes to precipitate proteins. Supernatant were then transferred to microcentrifuge tubes and subject to reverse phase HPLC analysis to determine the concentration of test compound.
(§2) The percentage of compounds that remained in the assay reactions after a thirty-minute incubation at 37° C. is calculated as the ratio between the amount of compound remained after a thirty-minute and that after a zero-minute incubation.

EphB4 = biological target: T2, EphB4 (Homo sapiens, UniProt P54760); assay: EphB4 cell-based assay (quantitative Western blotting, PC-3 cells, Ephrin-B2 stimulated); conditions: compound at 100 nM; PC-3 human prostate cancer cells; Ephrin-B2 stimulation; read-out: % EphB4 kinase activity remains
T2 construct: EphB4 autophosphorylation in PC-3 human prostate cancer cells; host or cells: PC-3 human prostate cancer cells
T2 sequence (P54760 16-987): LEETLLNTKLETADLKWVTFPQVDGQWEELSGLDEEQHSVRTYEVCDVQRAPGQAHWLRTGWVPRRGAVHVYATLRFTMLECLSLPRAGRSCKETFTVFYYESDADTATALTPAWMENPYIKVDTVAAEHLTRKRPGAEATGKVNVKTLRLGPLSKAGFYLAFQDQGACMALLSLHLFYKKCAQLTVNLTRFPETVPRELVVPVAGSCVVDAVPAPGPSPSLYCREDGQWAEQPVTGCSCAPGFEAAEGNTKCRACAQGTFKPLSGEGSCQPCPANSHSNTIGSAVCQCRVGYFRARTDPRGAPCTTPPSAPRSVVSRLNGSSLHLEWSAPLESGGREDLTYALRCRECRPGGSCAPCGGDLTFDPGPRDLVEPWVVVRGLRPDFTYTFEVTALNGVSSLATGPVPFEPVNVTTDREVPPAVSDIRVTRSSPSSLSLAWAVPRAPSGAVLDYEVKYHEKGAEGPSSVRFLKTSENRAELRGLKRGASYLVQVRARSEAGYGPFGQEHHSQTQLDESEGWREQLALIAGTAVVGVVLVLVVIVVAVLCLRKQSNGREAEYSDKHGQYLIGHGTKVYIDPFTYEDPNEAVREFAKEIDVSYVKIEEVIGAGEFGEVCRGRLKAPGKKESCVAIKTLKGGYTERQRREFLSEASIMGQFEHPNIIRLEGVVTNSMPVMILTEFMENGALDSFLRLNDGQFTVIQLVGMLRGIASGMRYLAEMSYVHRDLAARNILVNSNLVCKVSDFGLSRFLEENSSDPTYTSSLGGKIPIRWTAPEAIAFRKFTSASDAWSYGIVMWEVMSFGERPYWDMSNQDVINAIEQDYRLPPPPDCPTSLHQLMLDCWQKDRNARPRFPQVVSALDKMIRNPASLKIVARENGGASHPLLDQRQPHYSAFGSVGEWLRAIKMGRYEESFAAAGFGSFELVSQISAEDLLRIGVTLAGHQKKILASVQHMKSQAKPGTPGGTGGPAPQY
Excerpt: A standard image-based quantitative Western blotting assay for EphB4 kinase activity can be used to test or screen the compounds of this invention and to identify EphB4 antagonists.
The kinase activity of EphB4 in cells depends on its autophosphorylation level stimulated by the binding to its ligand Ephrin-B2. High level of EphB4 autophosphorylation in PC-3 human prostate cancer cells (ATCC, USA) induced by the application of Ephrin-B2 to the cell culture can be observed by regular Western blotting assay.
A compound to be tested was first dissolved in DMSO to a concentration of 10 mM and stored at −20° C. On the day of screening procedure, the compound in DMSO was added into DMEM medium to a final concentration of 100 nM. Two hours later, Ephrin-B2 ([…]) was added into DMEM medium to stimulate the production of phosphor-EphB4. The phosphor-EphB4 was detected based on its molecular weight and with anti-phosphor protein antibody PY-20 in cell lysate from approximately 5×10^5 PC-3 cells by Western blotting followed by imaging quantification. The relative level of EphB4 kinase activity was quantified as the ratio between the amount of phosphor-EphB4 and that of total Actin proteins.

Rat liver microsome = assay: Liver microsomal stability assay, rat; assay type: in vitro ADME; design: key: A: the percentage of a compound remains is greater than that of its deuterium non-enriched counterpart; B: a result otherwise; conditions: 40 μM, 37° C., 30 min, 1 mg/ml microsome proteins; class relative to deuterium non-enriched counterpart
Method: as §1, §2

Structure (SMILES)	remaining activity at 0.1 µM (VEGFR2) [%]	% of compound remained at the 30th minutes, Mouse liver microsome (Mouse liver microsome)	remaining activity at 0.1 µM (EphB4) [%]	% of compound remained at the 30th minutes, Rat liver microsome (Rat liver microsome)
[2H]C([2H])(c1ccnc(N)c1)N1CCc2c(NC(=O)Nc3cc(Cl)ccc3OC)cccc21 [Example 1, 1-[1-[(2-Amino-4-pyridyl)-dideuteriomethyl]indolin-4-yl]-3-(5-chloro-2-methoxyphenyl)urea]	< 70	A	< 70	A
Cl.[2H]C([2H])(c1ccnc(N)c1)n1ccc2c(NC(=O)Nc3cc(Cl)ccc3OC)cccc21 [Example 2, 1-[1-[(2-amino-4-pyridyl)-dideuteriomethyl]indol-4-yl]-3-(5-chloro-2-methoxyphenyl)urea hydrochloride]	< 70	A	< 70	A
[2H]C([2H])([2H])Oc1ccc(Cl)cc1NC(=O)Nc1cccc2c1CCN2C([2H])([2H])c1ccnc(N)c1 [Example 3, 1-[1-[(2-Amino-4-pyridyl)-dideuteriomethyl]indolin-4-yl]-3-[5-chloro-2-(trideuteriomethoxy)phenyl]urea]	< 70	B	< 70	A
[2H]C([2H])([2H])Oc1ccc(Cl)cc1NC(=O)Nc1cccc2c1ccn2C([2H])([2H])c1ccnc(N)c1 [Example 4, 1-[1-[(2-amino-4-pyridyl)-dideuteriomethyl]indol-4-yl]-3-[5-chloro-2-(trideuteriomethoxy)phenyl]urea]	< 70	B	< 70	A
[2H]C([2H])([2H])Oc1ccc(Cl)cc1NC(=O)Nc1cccc2c1CCN2Cc1ccnc(N)c1 [Example 5, 1-[1-[(2-Amino-4-pyridyl)methyl]indolin-4-yl]-3-[5-chloro-2-(trideuteriomethoxy)phenyl]urea]	< 70	B	< 70	A
[2H]C([2H])([2H])Oc1ccc(Cl)cc1NC(=O)Nc1cccc2c1ccn2Cc1ccnc(N)c1 [Example 6, 1-[1-[(2-amino-4-pyridyl)methyl]indol-4-yl]-3-[5-chloro-2-(trideuteriomethoxy)phenyl]urea]	≥ 70	B	< 70	A
Cl.[2H]C([2H])([2H])Oc1ccc(Cl)cc1NC(=O)Nc1cccc2c1CCN2C([2H])([2H])c1ccnc2[nH]ccc12 [Example 7, 1-[5-Chloro-2-(trideuteriomethoxy)phenyl]-3-[1-[dideuterio(1H-pyrrolo[2,3-b]pyridin-4-yl)methyl]indolin-4-yl]urea hydrochloride]	< 70	A	≥ 70	A
Cl.[2H]C([2H])([2H])Oc1ccc(Cl)cc1NC(=O)Nc1cccc2c1ccn2C([2H])([2H])c1ccnc2[nH]ccc12 [Example 8, 1-[5-chloro-2-(trideuteriomethoxy)phenyl]-3-[1-[dideuterio(1H-pyrrolo[2,3-b]pyridin-4-yl)methyl]indol-4-yl]urea hydrochloride]	< 70	A	≥ 70	A
[2H]C([2H])(c1ccnc2[nH]ccc12)N1CCc2c(NC(=O)Nc3cc(Cl)ccc3OC)cccc21 [Example 9, 1-(5-Chloro-2-methoxyphenyl)-3-[1-[dideuterio(1H-pyrrolo[2,3-b]pyridin-4-yl)methyl]indolin-4-yl]urea hydrochloride]	< 70	A	≥ 70	A
[2H]C([2H])(c1ccnc2[nH]ccc12)n1ccc2c(NC(=O)Nc3cc(Cl)ccc3OC)cccc21 [Example 10, 1-(5-chloro-2-methoxyphenyl)-3-[1-[dideuterio(1H-pyrrolo[2,3-b]pyridin-4-yl)methyl]indol-4-yl]urea hydrochloride]	< 70	A	≥ 70	B
[2H]C([2H])(c1ccnc2[nH]ccc12)N1CCc2c(NC(=O)Nc3cc(Cl)ccc3F)cccc21 [Example 11, 1-(5-Chloro-2-fluorophenyl)-3-[1-[dideuterio(1H-pyrrolo[2,3-b]pyridin-4-yl)methyl]indolin-4-yl]urea hydrochloride]	< 70	B	< 70	B
[2H]C([2H])(c1ccnc2[nH]ccc12)n1ccc2c(NC(=O)Nc3cc(Cl)ccc3F)cccc21 [Example 12, 1-(5-chloro-2-fluorophenyl)-3-[1-[dideuterio(1H-pyrrolo[2,3-b]pyridin-4-yl)methyl]indol-4-yl]urea hydrochloride]	< 70	B	< 70	A
